Laboratory results from patent US9315481B2, “Compounds and methods for treating leukemia” (INDIANA UNIVERSITY RESEARCH AND TECHNOLOGY CORPORATION, priority 2012, dated 2016).
“Also recorded” adds a separate entry of the source.

Tests used:
[1] = system: STAT3; experiment: activation status of signaling pathways in T-ALL; assay type: cell-based
Experimental: Western blot analysis. For whole cell lysates, cells are harvested, lysed in RIPA buffer (Santa Cruz Biotechnology; Santa Cruz, Calif.), and protein is quantified and electrophoresed. Nuclear and cytoplasmic extracts are isolated using a conventional method (See, Jackson, (2006)). Immunoblotting is performed using the following antibodies: APE1 (Novus Biologicals; Littleton, Colo.), STAT1, STAT3, STAT5, p-STAT1(Y701), p-STAT3(Y705), p-STAT5 (Y694) (Cell Signaling; Danvers, Mass.), and tubulin (Sigma Aldrich) or GAPDH (Santa Cruz).
Biochemistry. […] That result is in contrast to what is observed with other compounds such as PI3K/Akt or mTOR.

[2] = target: Ref-1 (Homo sapiens, UniProt P27695); experiment: conventional redox EMSA assay; assay type: biochemical
Source text: (§1) Biochemistry 50, 82-92 (2011). Nyland et al., Design and Synthesis of Novel Quinone Inhibitors Targeted to the Redox Function of Apurinic/Apyrimidinic Endonuclease 1/Redox Enhancing Factor-1 (Ape1/Ref-1). J Med Chem 53, 1200-1210 (2010). Kelley et al., Cancer Drug Discovery and Development (ed Rebecca G. Bagley) Springer (part of Springer Science+Business Media), 2010. Luo et al., Role of the multifunctional DNA repair and redox signaling protein Ape1/Ref-1 in cancer and endothelial cells: Small molecule inhibition of Ape1's redox function. Antioxid Redox Signal 10, 1853-1867 (2008). Georgiadis et al., Evolution of the redox function in mammalian Apurinic/apyrimidinic Mutation Research 643, 54-63 (2008).
Electrophoretic mobility shift assay (EMSA). EMSAs are performed as previously described (Georgiadis, (2008) #15789) with the some modifications. Briefly, for super-shift assay, 6 μg STAT3 antibody (Santa Cruz Biotechnology, Inc, Santa Cruz, Calif.) is pre-incubated with 15 mg nuclear extract from PaCa-2 cells (treated with 50 ng/mL IL-6 for 2 hrs in 2% serum), followed by 1 μg/mL poly(dI-dC).poly(dI-dC) (Amersham Biosciences, Piscataway, N.J.) and 0.1 pmol 5′HEX-labeled double-stranded oligonucleotide DNA (Midland Certified Reagent Company, Midland, Tex.) containing the STAT3 direct repeat consensus sequence for 15 min (Preston, (2005)). For the experiment of APE1 interacting with STAT3, purified APE1 protein is reduced with 2 mM DTT (dithiothreitol) for 10 min and diluted to a final concentration of 4 mg with 0.4 mM DTT in PBS. Reduced APE1 is added to 15 mg nuclear extract as above. The final concentration of DTT in redox reactions is 0.04 mM.

[3] = system: STAT3, AP-1, and NF-κB; experiment: DNA binding and transcriptional activity of the target TFs of Ref-1; assay type: biochemical; settings: STAT3, AP-1, NF-κB
Experimental: Electrophoretic mobility shift assay (EMSA). […] For the experiment of APE1 interacting with STAT3, purified APE1 protein is reduced with 2 mM DTT (dithiothreitol) for 10 min and diluted to a final concentration of 4 mg with 0.4 mM DTT in PBS. Reduced APE1 is added to 15 mg nuclear extract as above. The final concentration of DTT in redox reactions is 0.04 mM.

[4] = system: TAIL7 cells; experiment: standard cell survival assay (ATP assay) of TAIL7 cells; assay type: cell-based; settings: Homo sapiens, 96 h
Source text: The compounds described herein decrease survival of leukemia cells.

[5] = Maximum tolerated dose (MTD); settings: in vivo, po
Source text: Maximum tolerated dose (MTD). […] Animals were monitored for up to 14 days after termination of dosing.

[6] = system: refractory T-ALL cells; experiment: xenograft model of leukemia; assay type: in vivo, NSG mice; settings: b.i.d., one cycle of 5 days; for circulating blasts (human CD45+ cells in peripheral blood): p<0.05 vs vehicle
Experimental: Xenograft models of childhood relapse, refractory ALL. The antileukemia efficacy of Ref-1 redox blockade by the compounds described herein is evaluated in xenograft models of human ALL. In a first phase, the xenograft model with TAIL7 cells is used to test the therapeutic efficacy of the test compound as monotherapy, and in dual-agent regimens combining test compound with agents used as frontline chemotherapy for T-ALL (Vincristine; Doxorubicin; Dexamethasone) and for relapse T-ALL (Methotrexate). […] Such models of childhood ALL are used in immunodeficient mice (NOD/SCID: terminal leukemia in 70-120 d; NSG: terminal leukemia in 28-35 days with TAIL7 cells), including specimens from relapsed and infant ALL.
Xenografts of pediatric relapse T-cell leukemia: TAIL7 cells or cells from patients with relapse T-ALL (high cellularity; ≧90% BM involvement) will be used for the xenografts; patient specimens will be provided by Dr. Batra, according with IRB regulations. Leukemia cells (1×10^6 TAIL7 cells; 2-3×10^6 patient cells/mice) will be transplanted IV into NSG mice (7-9 wk old). 19, 24 Mice will be monitored weekly for presence of human blasts in the PB, by flow cytometry.
NSG mice (n=5/group) transplanted with refractory T-ALL cells. […] At the end of treatment, frequency of human CD45+ cells was performed in the peripheral blood (PB) and in the bone marrow (BM). Animals are sacrificed for analysis.

[7] = system: T-ALL cells; experiment: Annexin V/PI assay of apoptosis; assay type: cell-based; settings: E3330 […] μM or 40 μM, d1 to d5
Source text: The compounds described herein cause apoptosis of leukemia cells, including leukemia T-ALL cells.

[8] = system: Jurkat, SupT1, MOLT4, and HPB-ALL cell lines; experiment: viability of relapse T-ALL cell lines; assay type: cell-based; settings: Homo sapiens; immortalized lines derived from relapse T-ALL patients
Source text: (§2) The compounds described herein are effective against leukemia cells harvested from the bone marrow (BM), thymus (T) or spleen (S). Cells are harvested from the bone marrow (BM), thymus (T) or spleen (S) of mice with terminal Notch (ICN)-induced T-ALL, as determined in a conventional ATP assay (viability at 96 hrs) of the leukemia cells cultured with IL-7. […] Similar inhibition is observed in immortalized Jurkat, SupT1, MOLT4, and HPB-ALL cell lines derived from relapse T-ALL patients, with IC50s from 10-30 μM. Relapse T-ALL lines (Jurkat, SupT1, MOLT4, and HPB-ALL) are reportedly resistant to treatment with glucocorticoids. The compounds described herein are also effective against TAIL7-Dexamethasone resistant cells, which show reduced sensitivity to inhibitors of other leukemia-associated signaling pathways (such as PI3K/Akt, mTOR), and to cytotoxic chemotherapy drugs.

[9] = system: leukemia cells; experiment: leukemia cell survival; assay type: cell-based; settings: primary cells from ALL patients, relapsed T-ALL, cells from murine Notch-induced leukemia
Experimental: as §1, with “The activity of other selective Ref-1 redox inhibitors are analyzed against leukemia cells according to conventional redox EMSA assays. See, Su, D. et al. Interactions of APE1 with a redox inhibitor: Evidence for an alternate conformation of the enzyme. Biochemistry” for “Biochemistry”

[10] = system: T-ALL lines from a murine model of T-cell leukemia induced by oncogenic Notch; experiment: ATP viability assay of leukemia cells from murine Notch-induced T-ALL; assay type: cell-based; settings: Mus musculus, T-ALL lines from mice with terminal Notch-induced disease
Source text: as §2

[11] = system: T-ALL cells; experiment: potentiation of conventional drugs, ATP assay; assay type: cell-based; settings: fixed dose 20 μM, compared to vehicle
Source text: The compounds described herein potentiate the efficacy of conventional drugs for treating leukemia, such as doxorubicin and STATTIC. […]

[12] = system: Survivin and Bcl-xL mRNA; experiment: quantitative PCR of survival genes; assay type: cell-based; settings: after 24 h at doses between 25-40 μM
Source text: The compounds described herein caused a substantial downregulation of survival genes regulated by STAT3 and NF-κB, such as Survivin, Bcl-xL, and miR-21.

Sequence of Ref-1 (P27695 whole entry): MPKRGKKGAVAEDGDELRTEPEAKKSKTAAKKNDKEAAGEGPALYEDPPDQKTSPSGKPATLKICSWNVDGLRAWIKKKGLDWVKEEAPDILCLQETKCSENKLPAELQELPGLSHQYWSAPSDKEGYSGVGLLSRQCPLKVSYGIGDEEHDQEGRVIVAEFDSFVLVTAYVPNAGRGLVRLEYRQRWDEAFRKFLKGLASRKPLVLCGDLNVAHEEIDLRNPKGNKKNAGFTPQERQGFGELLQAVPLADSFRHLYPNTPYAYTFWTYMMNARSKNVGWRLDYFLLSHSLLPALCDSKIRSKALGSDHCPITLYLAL

Structure (SMILES) | activation status of other signaling pathways involved in T-ALL [1] | phosphorylation state and nuclear translocation of STAT3 [1] | IC50 [2] [µM] | DNA binding and transcriptional activity of the target TFs of Ref-1 [3] | IC50 [4] [µM] | MTD [5] [mg/kg] | frequency of CD45+ in the BM ([6]; 25 mg/kg/d) | circulating blasts (human CD45+ cells in peripheral blood) ([6]; 25 mg/kg/d) | leukemia cell apoptosis [7] | IC50 [8] [µM] | leukemia cell survival [9] | IC50 [10] [µM] | potentiation of the activity of STATTIC [11] | potentiation of the activity of doxorubicin [11] | reduction in Survivin and Bcl-xL mRNA [12] | frequency of CD45+ in the BM ([6]; 50 mg/kg/d) | circulating blasts (human CD45+ cells in peripheral blood) ([6]; 50 mg/kg/d)
COC1=C(C=C(C)C(=O)N(C)C)C(=O)c2ccccc2C1=O [Example 5a] | do not affect | do not affect | 1 | disrupt | 5.5 | > 250 | – | – | – | – | – | – | – | – | – | – | –
CCCC(=CC1=C(OC)C(=O)c2ccccc2C1=O)C(=O)N(CC)CC [Example 5c] | do not affect | do not affect | 1 | disrupt | 4.2 | > 250 | marked decrease | significant reduction | – | – | – | – | – | – | – | – | –
CCCC(=CC1=C(OC)C(=O)c2ccccc2C1=O)C(=O)N(C)C [Example 5e] | do not affect | do not affect | 2 | disrupt | 5.5 | > 250 | – | – | – | – | – | – | – | – | – | – | –
CCCCCCCCC/C(=C\C1=C(C)C(=O)C(OC)=C(OC)C1=O)C(=O)O [Example E3330] | do not affect | do not affect | – | disrupt | 29.7 | > 250 | – | – | significant leukemia cell apoptosis; also recorded: induces leukemia cell apoptosis | 10 to 30 | markedly inhibits | 20 to 30 | potentiates | potentiates | 2-10 fold | marked decrease | significant reduction
